Measured values taken from US7238469B2, “Carbon monoxide improves outcomes in tissue and organ transplants and suppresses apoptosis” (priority 2001, dated 2007).

Experiments:
[1] = test system: murine islets of Langerhans; experiment: DNA fragmentation analysis (FACScan) of murine islets stimulated with TNF-α and cycloheximide; assay type: cell-based, C57BL/6 mice; conditions: isolated murine islets; TNF-α plus cycloheximide; CO 1% for 24 hours; analysed after 48 hours
Procedure: (§1) βTC3 cultures were incubated with recombinant TNF-α (500 or 1000 U/ml) (R&D Systems) for 24 hours and islet cultures were stimulated with TNF-É (5000 U/ml) (R&D Systems) and cyclohexamide (CHX) (50 μg/ml) for 48 hours. βTC3 or islets were harvested, dispersed, fixed in 70% ethanol, and suspended in DNA staining buffer (PBS, pH 7.4, containing 0.1% Triton X-100, 0.1 mM EDTA, 50 μg/ml propidium iodide, […] Rnase A). DNA content was analyzed on a FACScan™ analyzer equipped with Cell QuestO Software (Becton Dickinson, Palo Alto, Calif.). Cells with a normal DNA content (2N) were scored as viable, whereas cells with a hypoploid DNA content (<2N, termed A^0) were scored as apoptotic. To exclude debris and apoptotic cell-free fragments, all events with an FL-2 area profile below that of chicken erythrocyte nuclei were excluded from analysis.
Cells and islets were exposed to 1% carbon monoxide in compressed air balanced with 5% CO2, as described elsewhere (see, e.g., Otterbein et al., Nature Med. 6:422–428, 2000). Islets were incubated in RPMI medium pre-saturated with carbon monoxide (4° C. overnight, 1% CO, 5% CO2) for two hours at 37° C. while treatment with 1% CO, 5% CO2 was continued.
Whether exogenous carbon monoxide protects murine islet cells from apoptosis was also investigated (FIG. 3). […] After 48 hours cells were analyzed on a FACScan™ for DNA fragmentation. […]

βTC3 cells = experiment: DNA fragmentation analysis (FACScan) of βTC3 treated with TNF-α; assay type: cell-based, murine; conditions: exogenous CO 1% for 24 hours
Procedure: as §1
Cells and islets were exposed to 1% carbon monoxide in compressed air balanced with 5% CO2, as described elsewhere (see, e.g., Otterbein et al., Nature Med. 6:422–428, 2000). […]
Whether exogenous carbon monoxide could protect β-cells from apoptosis was investigated (FIGS. 2A–C). […] After 24 hours cells were stained by propidium iodide and analyzed for DNA fragmentation on a FACScan™. […]

[2] = water at 0° C.; cited from earlier work
[3] = test system: rat platelets overlaid on mouse 2F–2B endothelial cells; experiment: Platelet aggregation assay, platelets overlaid on pretreated endothelial cells; assay type: cell-based; conditions: endothelial cells pretreated with protoporphyrin 50 μM; ADP 2 μM
Procedure: Mouse 2F–2B endothelial cells were cultured on 0.2% gelatin (Sigma) coated six-well plates in 88% DMEM (Life Technologies), 10% FCS (FCS), 100 U/ml penicillin, and 100 îg/ml streptomycin (Life Technologies). Confluent endothelial cells either were left untreated or were treated with the HO-inducing agent CoPPIX (50 îM; 18 h), the HO inhibitor SnPPIX (50 îM, 18 h), or both CoPPIX (50 îM, 15 h) and SnPPIX (50 îM, 3 h). Platelet-rich plasma was obtained by centrifugation (290-g, 12 min, 19° C.) of normal rat […] in 3.8% sodium citrate. Rat platelets (3–10^8 cells ml) were resuspended in HT buffer (8.9 mM NaHCO3, 0.8 mM KH2PO, 5.6 mM dextrose, 2.8 mM KCl solution, 0.8 mM MgCl2, 129 mM NaCl, 10 mM HEPES). Platelets were overlaid (5 min; 37° C.) on mouse endothelial cells, and platelet aggregation assays were conducted as described before (Kaczmarek et al, J. Biol. Chem. 271:33116, 1996) by using an aggregometer (Chrono-Log, Harestown, Pa.) and ADP (0.5–4 μM) as an agonist.

[C-]#[O+] [CO, carbon monoxide]
apoptotic cells (DNA fragmentation analysis) [1]: 11.7%
apoptotic cells (DNA fragmentation analysis) (βTC3 cells): 11.7%
saturation point [2]: about 0.0044 g CO/100 g medium

C=Cc1c2[n-]c(c1C)/C=c1\[n-]/c(c(C)c1C=C)=C\c1[n-]c(c(CCC(=O)O)c1C)C=c1[n-]/c(c(C)c1CCC(=O)O)=C\2.[Sn+4] [SnPPIX, tin protoporphyrin IX]
platelet aggregation on stimulation by ADP [3]: platelet aggregation was enhanced
